PubChem BioAssay AID256 (DTP/NCI, 2004)
Values joined by “and” are separate entries in the source; they are usually repeats but may differ in a detail not shown here. Equal values may be shown once. Inconclusive results and toxic doses are left out.

Test system: CD2F1 mice, L1210 leukemia ip, survival T/C
Test: NCI In Vivo Anticancer Drug Screen. Data for tumor model L1210 Leukemia (intraperitoneal) in CD2F1 (CDF1) mice
Conditions: endpoint: mean survival time, higher = longer survival
Procedure, shortened: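 Implant tumor; dose compound or vehicle; measure endpoint in both groups; report treated divided by control.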

[1] = dose: 100.0 mg/kg/injection, schedule: Q04DX002 (ip), vehicle: saline with Tween-80
[2] = dose: 200.0 mg/kg/injection, schedule: Q04DX002 (ip), vehicle: saline with Tween-80
[3] = dose: 400.0 mg/kg/injection, schedule: Q04DX002 (ip), vehicle: saline with Tween-80
[4] = dose: 100.0 mg/kg/injection, schedule: Q01DX009 (ip), vehicle: saline
[5] = dose: 200.0 mg/kg/injection, schedule: Q01DX009 (ip), vehicle: saline
[6] = dose: 400.0 mg/kg/injection, schedule: Q01DX009 (ip), vehicle: saline
[7] = dose: 100.0 mg/kg/injection, schedule: Q04DX003 (ip), vehicle: saline with Tween-80
[8] = dose: 200.0 mg/kg/injection, schedule: Q04DX003 (ip), vehicle: saline with Tween-80
[9] = dose: 400.0 mg/kg/injection, schedule: Q04DX003 (ip), vehicle: saline with Tween-80
[10] = dose: 100.0 mg/kg/injection, schedule: Q01DX009 (ip), vehicle: saline with Tween-80
[11] = dose: 200.0 mg/kg/injection, schedule: Q01DX009 (ip), vehicle: saline with Tween-80
[12] = dose: 400.0 mg/kg/injection, schedule: Q01DX009 (ip), vehicle: saline with Tween-80

**Q.** For `CN(C)C(=O)Nc1cc(Cl)ccc1Cl`, which T/C [1] is on record?
**A.** Its T/C is 97 % of control.

**Q.** What about the T/C [2] of the same compound?
**A.** Its T/C is 108 % of control.

**Q.** What about the T/C [3] of the same compound?
**A.** The T/C was 120 % of control.

**Q.** For `O=C1CCC(=O)N1C1c2ccccc2Oc2ccccc21`, which T/C [4] is on record?
**A.** The T/C was 96 % of control.

**Q.** What about the T/C [5] of the same compound?
**A.** Its T/C is 91 % of control.

**Q.** What about the T/C [6] of the same compound?
**A.** Its T/C is 92 % of control.

**Q.** `O=C1NC(=O)C([P+](c2ccccc2)(c2ccccc2)c2ccccc2)C1=O` (stereo not given) was tested. Which T/C [7] did it give?
**A.** Its T/C is 102 % of control.

**Q.** What about the T/C [8] of the same compound?
**A.** The T/C was 102 % of control.

**Q.** And the T/C [9]?
**A.** Its T/C is 98 % of control.

**Q.** Which T/C [7] does the source give for `O=[N+]([O-])c1[nH]c(Br)nc1Br` here?
**A.** The T/C was 95 % of control.

**Q.** What about the T/C [8] of the same compound?
**A.** The T/C was 100 % of control.

**Q.** How did the T/C (dose: 1.88 mg/kg/injection, schedule: Q04DX003 (ip), vehicle: saline) turn out when `O=CC(O)C(O)C(O)C(O)C(=O)O.[NH-]CC1CCCCC1[NH-].[Pt+2]` (stereo not given) was run?
**A.** Its T/C is 118 % of control.

**Q.** What about the T/C (dose: 7.5 mg/kg/injection, schedule: Q04DX003 (ip), vehicle: saline) of the same compound?
**A.** Its T/C is 156 % of control.

**Q.** What about the T/C (dose: 15.0 mg/kg/injection, schedule: Q04DX003 (ip), vehicle: saline) of the same compound?
**A.** The T/C was 166 % of control and 253 % of control.

**Q.** What about the T/C (dose: 30.0 mg/kg/injection, schedule: Q04DX003 (ip), vehicle: saline) of the same compound?
**A.** The T/C was 151 % of control.

**Q.** How did the T/C (dose: 50.0 mg/kg/injection, schedule: Q04DX002 (ip), vehicle: saline with Tween-80) turn out when `CCOc1ccccc1NCN1C(=O)c2ccccc2C1=O` was run?
**A.** The T/C was 95 % of control.

**Q.** And the T/C [1]?
**A.** The T/C was 91 % of control.

**Q.** What about the T/C [2] of the same compound?
**A.** The T/C was 95 % of control.

**Q.** What about the T/C [3] of the same compound?
**A.** Its T/C is 88 % of control.

**Q.** Which T/C (dose: 12.5 mg/kg/injection, schedule: Q01DX009 (ip), vehicle: Klucel (hydroxypropylcellulose) (HPC)) does the source give for `O=c1scc(-c2ccc(C(F)(F)F)cc2)s1` here?
**A.** Its T/C is 100 % of control.

**Q.** What about the T/C (dose: 25.0 mg/kg/injection, schedule: Q01DX009 (ip), vehicle: Klucel (hydroxypropylcellulose) (HPC)) of the same compound?
**A.** Its T/C is 91 % of control.

**Q.** How did the T/C (dose: 75.0 mg/kg/injection, schedule: Q01DX001 (ip), vehicle: saline) turn out when `CCOC(=O)c1c(-c2ccccc2)csc1NC(=O)CBr` was run?
**A.** Its T/C is 106 % of control.

**Q.** What about the T/C (dose: 150.0 mg/kg/injection, schedule: Q01DX001 (ip), vehicle: saline) of the same compound?
**A.** The T/C was 101 % of control.

**Q.** What about the T/C (dose: 300.0 mg/kg/injection, schedule: Q01DX001 (ip), vehicle: saline) of the same compound?
**A.** The T/C was 98 % of control.

**Q.** What does the source list for `O=C(c1ccccc1)C1OC1c1ccccc1` (stereo not given)?
**A.** T/C [10]: 93 % of control; T/C [7]: 101 % of control; T/C [11]: 94 % of control; T/C [8]: 98 % of control; T/C [12]: 94 % of control; T/C [9]: 101 % of control

**Q.** What does the source list for `CCCCCCCCCCCCCCCCCC[N+]1(C)CCOCC1`?
**A.** T/C (dose: 6.25 mg/kg/injection, schedule: Q04DX002 (ip), vehicle: Klucel (hydroxypropylcellulose) (HPC)): 95 % of control; T/C (dose: 12.5 mg/kg/injection, schedule: Q04DX002 (ip), vehicle: Klucel (hydroxypropylcellulose) (HPC)): 91 % of control; T/C (dose: 25.0 mg/kg/injection, schedule: Q04DX002 (ip), vehicle: Klucel (hydroxypropylcellulose) (HPC)): 90 % of control and 98 % of control; T/C (dose: 100.0 mg/kg/injection, schedule: Q04DX002 (ip), vehicle: Klucel (hydroxypropylcellulose) (HPC)): 101 % of control

**Q.** What does the source list for `c1ccc(C2=NN(c3ccccc3)CN(c3ccccc3)N2)cc1`?
**A.** T/C [10]: 106 % of control; T/C [11]: 97 % of control; T/C [12]: 96 % of control

**Q.** How did the T/C (dose: 30.0 mg/kg/injection, schedule: Q01DX Z (ip), vehicle: water) turn out when `CN=C(N)c1ccc(N=C(N)c2ccc(NC(=O)c3ccc(C(N)=NC)cc3)cc2)cc1` was run?
**A.** The T/C was 151 % of control.

**Q.** `CC(=O)C1=C2c3ccccc3C(=O)c3c(Br)cc(S(=O)(=O)O)c(c32)NC1` was tested. Which T/C (dose: 100.0 mg/kg/injection, schedule: Q01DX001 (ip), vehicle: saline with Tween-80) did it give?
**A.** The T/C was 94 % of control.

**Q.** And the T/C (dose: 200.0 mg/kg/injection, schedule: Q01DX001 (ip), vehicle: saline with Tween-80)?
**A.** The T/C was 94 % of control.

**Q.** And the T/C (dose: 400.0 mg/kg/injection, schedule: Q01DX001 (ip), vehicle: saline with Tween-80)?
**A.** The T/C was 90 % of control.

**Q.** `COc1cccc(NC(=S)NC(Cc2ccccc2)c2ccccc2)c1` (stereo not given) was tested. Which T/C (dose: 100.0 mg/kg/injection, schedule: Q01DX001 (ip), vehicle: Klucel (hydroxypropylcellulose) (HPC)) did it give?
**A.** Its T/C is 101 % of control.

**Q.** What about the T/C (dose: 200.0 mg/kg/injection, schedule: Q01DX001 (ip), vehicle: Klucel (hydroxypropylcellulose) (HPC)) of the same compound?
**A.** The T/C was 91 % of control.

**Q.** And the T/C (dose: 400.0 mg/kg/injection, schedule: Q01DX001 (ip), vehicle: Klucel (hydroxypropylcellulose) (HPC))?
**A.** The T/C was 96 % of control.

**Q.** `CC1CCOC(C)(C)O1` (stereo not given) was tested. Which T/C (dose: 100.0 mg/kg/injection, schedule: Q04DX002 (ip), vehicle: saline) did it give?
**A.** The T/C was 100 % of control.

**Q.** What about the T/C (dose: 200.0 mg/kg/injection, schedule: Q04DX002 (ip), vehicle: saline) of the same compound?
**A.** Its T/C is 86 % of control.

**Q.** And the T/C (dose: 400.0 mg/kg/injection, schedule: Q04DX002 (ip), vehicle: saline)?
**A.** The T/C was 104 % of control.

**Q.** Which T/C [10] does the source give for `O=[N+]([O-])c1cccc(N=NN2CCCC2)c1` here?
**A.** The T/C was 101 % of control.

**Q.** And the T/C [11]?
**A.** The T/C was 92 % of control.

**Q.** And the T/C [12]?
**A.** The T/C was 87 % of control.

**Q.** What does the source list for `NC(CSCc1cccs1)C(=O)O` (stereo not given)?
**A.** T/C (dose: 25.0 mg/kg/injection, schedule: Q01DX009 (ip), vehicle: saline): 94 % of control; T/C (dose: 50.0 mg/kg/injection, schedule: Q01DX009 (ip), vehicle: saline): 100 % of control; T/C [4]: 90 % of control; T/C [5]: 101 % of control; T/C [6]: 95 % of control
